Assay results published in article PMC11679033, “Assessing the Potential Synergistic/Antagonistic Effects of Citrinin and Cannabidiol on SH-SY5Y, HepG2, HEK293 Cell Lines, and Human Lymphocytes” (Toxins, 2024).
Marks after values point to notes of the source that are not given here.

Tests used:
[1] = test system: HepG2 cells; test: MTS viability assay, HepG2; type: cell-based, human; conditions: for lowest observed adverse effect level (LOAEL), approximate / cell viability at LOAEL concentrations: HepG2, 24 h; for cell viability at LOAEL concentrations: CBD 1 μM, CIT 30 μM, alone or combined
Description: Human neuroblastoma SH-SY5Y cells (ECACC 94030304), human hepatocyte carcinoma HepG2 (ECACC 85011430) and human embryonic kidney HEK293 (ECACC 85120602) used in the experiments were obtained from the European Collection of Authenticated Cell Cultures (ECACC) through Sigma-Aldrich (Steinheim, Germany). SH-SY5Y cells were grown in Dulbecco’s Modified Eagle’s Medium F12 containing 15% (v/v) fetal bovine serum (FBS), 2 mM glutamine, 1% (v/v) penicillin/streptomycin (PenStrep solution), and 1% (v/v) non-essential amino acids (NEAA solution). HEK293 and HepG2 cells were grown in EMEM medium (Sigma-Aldrich, Steinheim, Germany) supplemented with 10% (v/v) FBS, 2 mM glutamine, 1% (v/v) PenStrep and 1% (v/v) NEAA. All media and supplements were purchased from Sigma-Aldrich, Steinheim, Germany. Cells were cultured at 37 °C in a 5% CO2 atmosphere, the medium was changed every two days, and passage was carried out according to the manufacturer’s protocol.
MTS assay (CellTiter 96® AQueous One Solution Cell Proliferation Assay, Promega, Madison, WI, USA) was used to determine the viability of cells/cytotoxic properties of tested compounds by measuring cells’ mitochondrial succinate dehydrogenase activity. The procedure followed a previously described protocol. In brief, the cells were seeded in transparent 96-well plates at a density of 20,000 cells/well one day before the experiment and treated with tested compounds in concentrations: 0.01, 0.1, 0.5, 1, 2, 5, 10, 25, 50, 100 and 300 µM. Triton X-100 at a final concentration of 0.18% (v/v) (stock of 9% in water; Sigma-Aldrich, Steinheim, Germany) was used as a positive control. After 24 h, treatment with tested compounds and incubation with MTS reagent, the absorbance was read at 492 nm on an Infinite M200PRO (Tecan Group Ltd., Männedorf, Switzerland) plate reader. Data were taken from at least three independent experiments (each treatment performed in duplicate or triplicate) and expressed as percentages (mean ± standard error) of viable cells compared to control (untreated) cells. IC50 values were determined by a nonlinear fit equation predefined in Prism software 8 (GraphPad Software, San Diego, CA, USA).
The same method was used to evaluate a potential toxic synergistic effect on cells exposed to a combination of CBD and CIT at approximately LOAEL doses (lowest observed adverse effect level, 1 and 30 μM for SH-SY5Y and HepG2, and 2 and 0.05 μM for HEK293, respectively). There is no official recommendation for CBD oral use, but according to the available literature, we used a dose that corresponded to daily intake, which was 10 mg/kg/day (calculated on a person of 70 kg ~ 1 μM). These selected LOAEL concentrations were used for all other assays as well.

[2] = test system: human peripheral blood lymphocytes; test: Cytokinesis-Block Micronucleus Cytome (CBMN Cyt) Assay; conditions: 24 h, citrinin 30 µM, CBD 1 µM, bleomycin 1.25 µg/mL; for Distribution of BNMN Cells with 1 MN / Distribution of BNMN Cells with 2 MNi / Distribution of BNMN Cells with 3 MNi / Distribution of BNNB Cells with 1 NB / Distribution of BNNB Cells with 2 NBs / Micronuclei (MNi) and BNMN Cells: Total (BNNB)6000 / Micronuclei (MNi) and BNMN Cells: Total (MNi)6000 / Nuclear Buds (NBs) and BNNB Cells: Total (BNNB)6000 / Nuclear Buds (NBs) and BNNB Cells: Total (NBs)6000 / Nucleoplasmic Bridges (NPBs) and BNNPB Cells: Total (BNNPB)6000 / Nucleoplasmic Bridges (NPBs) and BNNPB Cells: Total (NPBs)6000: in 6000 BN cells; for Cell Death: Total (Apoptosis)6000 / Cell Death: Total (Necrosis)6000: in 6000 cells; for Micronuclei (MNi) and BNMN Cells: Mean (BNMN)1000 ± SD / Micronuclei (MNi) and BNMN Cells: Mean (MNi)1000 ± SD / Nuclear Buds (NBs) and BNNB Cells: Mean (BNNB)1000 ± SD / Nuclear Buds (NBs) and BNNB Cells: Mean (NBs)1000 ± SD / Nucleoplasmic Bridges (NPBs) and BNNPB Cells: Mean (BNNPB)1000 ± SD / Nucleoplasmic Bridges (NPBs) and BNNPB Cells: Mean (NPBs)1000 ± SD: per 1000 BN cells; for Cell Death: Mean (Apoptosis)1000 ± SD / Cell Death: Mean (Necrosis)1000 ± SD: per 1000 cells
Description: The experimental design included the establishment of lymphocyte cultures, and the 24 h treatments with the test compounds, performed according to the last OECD recommendations, given in the Test Guideline No. 487—In Vitro Mammalian Cell Micronucleus Test.
The selection of specific concentrations of test compounds adhered to the guidelines for in vitro genotoxicity testing using comet assay. […] Solutions used in testing were prepared just prior to treatment by dissolving the test compounds in ethanol (Kemika, Zagreb, Croatia).
Two independent trials, with six experimental groups each, were conducted. A total of six replicate cultures for every single experimental group were established. This step was carried out as follows: aliquots of heparinized blood (V = 600 μL per culture) were pipetted into a growth medium RPMI-1640 (Gibco, Grand Island, NY, USA) supplemented with 10% fetal calf serum (Gibco, Grand Island, NY, USA) and antibiotics (penicillin and streptomycin; Sigma-Aldrich, Steinheim, Germany). Lymphocytes were stimulated with a mitogen phytohemagglutinin (Remel, Lenexa, KS, USA) in order to induce cell division prior to exposure to the test chemicals. Cultures were maintained in the humidified atmosphere of 5% CO2 at 37 °C (Heraeus Hera Cell 240 incubator; Langenselbold, Germany).
Negative controls (NCs) were non-treated lymphocytes. Solvent controls (SCs) were lymphocytes treated with ethanol (its final concentration in the culture corresponded to 0.03%). Positive controls (PCs) were lymphocytes treated for 24 h with bleomycin at 1.25 µg/mL (according to [69]). The other three groups were lymphocytes exposed to single CIT, single CBD, and their combination (CIT + CBD, at the same concentrations).
Treatments with test compounds started 20 h after the initial establishment of the cell cultures and lasted for 24 h. Upon completion of the exposure, aliquots of 100 µL of the treated cultures were pipetted in sterile conditions and used to prepare microgels for the alkaline comet assay. The remaining content of flasks was further processed using Cytokinesis-Block Micronucleus Cytome (CBMN Cyt) Assay.
CBMN Cyt Assay was performed according to standard protocols proposed for micronucleus assay. Upon completion of the exposure, lymphocyte cultures were subjected to centrifugation at 100× g using a benchtop centrifuge (ROTOFIX 32A, Hettich, Tuttlingen, Germany). During this process, cells settled to the bottom of the tube. The growth medium with tested compounds was removed by pipetting, discarded and replaced with a fresh amount of complete growth medium RPMI-1640 that contained Cytochalasin B (cytoB; Sigma-Aldrich, Steinheim, Germany) at a final concentration of 6 µg/mL. This procedure was timed to the 44th hour of lymphocyte cultivation, as that time is a critical point for the addition of cytoB to inhibit cytokinesis and obtain binucleated cells. All treated and control cultures were further maintained in the previously described conditions at 37 °C until the end of the 72nd hour of cultivation, as proposed by protocols. Then, the preparation of microscopic slides started, which included harvesting of cells by centrifugation (100× g, ROTOFIX 32A centrifuge, Hettich, Tuttlingen, Germany), followed by hypotonic treatment (0.075 mol/L KCl; Kemika, Zagreb, Croatia), and a new round of centrifugation. The resulting sediments of cells were fixed in several repeating stages with methanol–acetic acid (3:1 v/v; both obtained from Kemika, Zagreb, Croatia) followed by centrifugation. The final lymphocyte suspension was dropped onto clean microscope slides.

| SMILES | lowest observed adverse effect level (LOAEL), approximate [1] | cell viability at LOAEL concentrations [1] | Distribution of BNMN Cells with 1 MN [2] | Distribution of BNMN Cells with 2 MNi [2] | Distribution of BNMN Cells with 3 MNi [2] | Distribution of BNNB Cells with 1 NB [2] | Distribution of BNNB Cells with 2 NBs [2] | Micronuclei (MNi) and BNMN Cells: Total (BNNB)6000 [2] | Micronuclei (MNi) and BNMN Cells: Total (MNi)6000 [2] | Nuclear Buds (NBs) and BNNB Cells: Total (BNNB)6000 [2] | Nuclear Buds (NBs) and BNNB Cells: Total (NBs)6000 [2] | Nucleoplasmic Bridges (NPBs) and BNNPB Cells: Total (BNNPB)6000 [2] | Nucleoplasmic Bridges (NPBs) and BNNPB Cells: Total (NPBs)6000 [2] | Cell Death: Total (Apoptosis)6000 [2] | Cell Death: Total (Necrosis)6000 [2] | Micronuclei (MNi) and BNMN Cells: Mean (BNMN)1000 ± SD [2] | Micronuclei (MNi) and BNMN Cells: Mean (MNi)1000 ± SD [2] | Nuclear Buds (NBs) and BNNB Cells: Mean (BNNB)1000 ± SD [2] | Nuclear Buds (NBs) and BNNB Cells: Mean (NBs)1000 ± SD [2] | Nucleoplasmic Bridges (NPBs) and BNNPB Cells: Mean (BNNPB)1000 ± SD [2] | other results |
| --- | --- | --- | --- | --- | --- | --- | --- | --- | --- | --- | --- | --- | --- | --- | --- | --- | --- | --- | --- | --- | --- |
| C=C(C)[C@@H]1CCC(C)=C[C@H]1c1c(O)cc(CCCCC)cc1O [CBD, cannabidiol] | ~ 1 μM | did not independently impact cell viability | 17 | 0 | 0 | 25 ^a | 0 | 17 | 17 | 25 ^a | 25 ^a | 0 | 0 | 19 ^a | 9 | 2.8 ± 0.8 | 2.8 ± 0.8 | 4.2 ± 0.4 ^a | 4.2 ± 0.4 ^a | 0 | cytotoxicity fold higher than CIT ([1]; in both HepG2 and SH-SY5Y, 24 h): 1.5- to 4 fold; Nucleoplasmic Bridges (NPBs) and BNNPB Cells: Mean (NPBs)1000 ± SD [2]: 0; Cell Death: Mean (Apoptosis)1000 ± SD [2]: 3.2 ± 0.8 ^a,b; Cell Death: Mean (Necrosis)1000 ± SD [2]: 1.5 ± 1.0 |
| CC1=C2C(=CO[C@H](C)[C@H]2C)C(O)=C(C(=O)O)C1=O [CIT, citrinin] | ~30 µM | did not independently impact cell viability | 66 ^a,b,d,e | 5 | 0 | 69 ^a,b,d,e | 5 | 71^a,b,d,e | 74 ^a,b,d,e | 74 ^a,b,d,e | 79 ^a,b,d,e | 4 | 4 | 50 ^a,b,d,e | 45 ^a,b,d,e | 11.7 ± 1.4 ^a,b,d,e | 12.3 ± 1.6 ^a,b,d,e | 12.3 ± 3.1 ^a,b,d,e | 13.2 ± 3.7 ^a,b,d,e | 0.7 ± 0.5 | Nucleoplasmic Bridges (NPBs) and BNNPB Cells: Mean (NPBs)1000 ± SD [2]: 0.7 ± 0.5; Cell Death: Mean (Apoptosis)1000 ± SD [2]: 8.3 ± 1.6 ^a,b,d,e; Cell Death: Mean (Necrosis)1000 ± SD [2]: 7.5 ± 0.8 ^a,b,d,e |
